From US20130336940A1, “MODIFIED PIG ISLETS FOR DIABETES TREATMENT” (UNIVERSITE CATHOLIQUE DE LOUVAIN, priority 2011, published 2013)

Experiments:
adult pig islets = conditions: cited from earlier work
isolated pig islets = experiment: In vitro islet functionality (24 hr incubation at G5, G15, G15+Fsk; insulin/glucagon RIA); type: cell-based
Procedure: The following steps were performed with the samples kept on ice. […] The samples were then sonicated 4×20 seconds (Sonifier B 12 [Branson Sonic Power Company, Danbury, Conn., USA]) and centrifugated 10 minutes at 4° C. at 1500 rpm. The first supernatant formed was removed and kept at −20° C. […] The samples were then kept at −20° C. overnight. After a step of centrifugation 10 minutes at 4° C. at 1500 rpm, the second supernatant was removed and kept at −20° C. […] The three supernatants were then pooled and constituted the pancreas extract. Human insulin specific RIA KIT and Glucagon RIA KIT (Millipore, Billerica, Mass., USA) were used for the determination of the hormonal content in human/pig pancreatic extractions as well as in isolated islets (see below). The content of insulin and glucagon in the extracts was performed following the instructions of the manufacturer. […] After incubation overnight at room temperature, 1 mL of precipitating reagent were added, followed by incubation 20 minutes at 4° C. The samples were then centrifuged 20 minutes at 2000-3000×g at 4° C.
Three replicates per concentration were performed. Media were thereafter recovered for insulin and glucagon quantification and islets were transferred in acid-ethanol for hormones extraction and quantification by radioimmuno-assay (see above).

[1] = system: islets from wild-type pigs; experiment: Insulin release of wild-type pig islets with exogenous GLP-1; type: cell-based
Procedure: After isolation from wild-type pigs, islets were incubated overnight at 37° C., 5% CO2/95% O2 in RMPI medium containing 10% heat-inactivated FCS, 100 IU/ml penicillin, 100 μg/ml streptomycin and 5 mmol/l glucose. The function of islets in different culture conditions was assessed by 2 or 24 hr incubation of 200 islets in 1.5 ml buffer containing (i) 1 mmol/l glucose, (ii) 15 mmol/l glucose, (iii) 15 mmol/l glucose+[…] Forskolin (fsk) (Calbiochem-Behring, San Diego, Calif.) (added from a 1 mmol/l stock solution in DMSO), (iv) 15 mmol/l glucose+1 μmol/l fsk, (v) 15 mmol/l glucose+5 nM GLP-1 (Sigma Aldrich), (vi) 15 mmol/l glucose+50 nM GLP-1, (vii) 15 mmol/l glucose+500 nM GLP-1, (viii) 15 mmol/l glucose+1 μmol/l fsk+50 nM GLP-1. Three replicates per concentration were performed. Media were thereafter recovered for insulin quantification and islets were transferred in acid-ethanol for hormones extraction and quantification by radioimmuno-assay (Human insulin RIA kit, Millipore, Billerica, Mass., USA).

[2] = 15 mmol/l glucose + 1 μmol/l Fsk, native and treated pig islets

glucagon: peptide hormone added to adult pig islets in cited literature studies
increase of stimulation index (adult pig islets; acute exposure to 1 or 10 μM glucagon): 30% | basal insulin release in comparison with control situation (adult pig islets; islets cultured in the presence of 10 μM glucagon): 2 fold

C=C[C@@]1(C)CC(=O)[C@]2(O)[C@@]3(C)[C@@H](O)CCC(C)(C)[C@@H]3[C@H](O)[C@H](OC(C)=O)[C@@]2(C)O1 [Fsk, Forskolin]
increase in insulin secretion after G15+Fsk in comparison with G5 and G15 (isolated pig islets; 1 μmol/l Fsk, native and treated islets): 2 to 4 fold | effect on glucagon secretion or content (isolated pig islets; [2]): No effect | effect on insulin content (isolated pig islets; [2]): No effect

GLP-1: exogenous GLP-1 (Sigma Aldrich) added to wild-type pig islets
increase of insulin release ([1]; 500 nM GLP-1, glucose 15 mM, 24 hrs incubation): 12% | stimulation index (ratio of insulin release at glucose 15 mM vs. 1 mM) ([1]; GLP-1 at 500 nM): significant increase | increase of insulin release in comparison to glucose 15 mM alone ([1]; GLP-1 at 50-500 nM, glucose 15 mM, 2 hrs incubation): 10%
